Key:
[1] = biological target: T1, rat GalR2 (Rattus norvegicus, UniProt O08726); experiment: Calcium assay at orthologue receptor; format: cell-based; conditions: Table 8; Calcium assays; mean +/− standard deviation
T1 sequence (O08726 1-372): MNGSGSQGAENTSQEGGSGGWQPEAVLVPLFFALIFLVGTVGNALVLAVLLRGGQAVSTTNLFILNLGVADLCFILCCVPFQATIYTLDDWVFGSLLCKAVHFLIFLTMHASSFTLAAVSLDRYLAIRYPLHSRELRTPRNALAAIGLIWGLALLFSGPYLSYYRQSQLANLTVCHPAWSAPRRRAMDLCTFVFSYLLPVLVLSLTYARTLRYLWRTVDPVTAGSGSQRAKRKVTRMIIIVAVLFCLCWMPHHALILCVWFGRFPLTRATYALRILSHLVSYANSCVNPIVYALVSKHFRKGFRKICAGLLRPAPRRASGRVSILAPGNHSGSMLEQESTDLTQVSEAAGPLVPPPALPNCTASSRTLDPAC
Source text: These species were chosen as they represent potential downstream in vivo models to be used. […] Calcium imaging was used to define receptor activity.

[2] = system: mouse CFA model of inflammatory pain; experiment: CFA-induced inflammatory pain model, weight bearing; format: in vivo
Source text: Intraplantar injection of Complete Freunds adjuvant (CFA) causes an inflammatory reaction which induces hypersensitivity and oedema and mimics some aspects of clinical inflammatory pain. These effects can be investigated using equipment to measure the […]. Naive mice distribute their body weight equally between the two hind paws. When the injected hind paw is inflamed and/or painful, the weight is re-distributed so that less weight is put on the affected paw (decrease in weight bearing on injured paw). Weight bearing through each hind limb is measured using an incapacitance tester (Linton Instruments, UK).
Environmental conditions: Animals were housed in standard caging and laboratory conditions in groups of 2-5, with free access to food (5CR4, Purina) and water (except during placement in the incapacitance box) on a 12/12 light/dark cycle. […] Weight bearing: Mice were placed in the incapacitance tester with the hind paws on separate sensors and the average force exerted by both hind limbs was recorded over 2 seconds. […] Prior to test compound treatment, weight bearing readings were taken to assess baseline hypersensitivity 23 hours post-CFA. […] Weight bearing was then assessed at 4, 24, 48 and 72 hours post-test compound treatment.
Weight bearing (g) readings were taken for both right and left hind paws and the difference calculated. […]

[3] = system: mouse chemotherapy-induced model of neuropathic pain; experiment: Oxaliplatin chemotherapy-induced neuropathic pain model, von Frey; format: in vivo; conditions: 0.1, 1 and 3 mg/kg i.p.; 4 hours post dose (day 5 after Oxaliplatin)
Method: Oxaliplatin-induced hypersensitivity: A single dose of Oxaliplatin was injected intraperitoneally (i.p.) at 10 mg/kg at a volume of 10 ml/kg. Oxaliplatin was dissolved in 5% dextrose to 1 mg/ml before use. Animals were injected in the same order in which they were tested.
Static mechanical tactile allodynia: Static mechanical (tactile) allodynia was assessed by measurement of withdrawal threshold using calibrated (force; g) von-Frey monofilaments (Touch-Test Sensory Evaluator; Scientific Marketing Associates) applied to the plantar surface of the hind paw. Animals were placed in individual Perspex boxes on a raised metal mesh for 30-40 min before the test. A series of graduated von Frey hairs (0.07, 0.16, 0.4, 0.6 and 1 g) was applied in sequence with a protocol of 1 sec on 1 sec off repeated 10 times. […] The force applied to the hind-paw of the animal to induce 5 responses out of 10 trials was recorded as paw withdrawal threshold (PWT).
Baseline PWT was assessed on three consecutive days (Day-3, Day-2 and Day-1). […]
Mechanical allodynia was re-assessed on Day 3 and 4 post-administration of a single dose of Oxaliplatin to monitor the development of allodynia. […]
Mechanical allodynia was re-assessed on Day 5 (4 hours post dose) and thereafter determined on Days 6 and 7 after administration of Oxaliplatin (i.e. 24 hours and 48 hours post FC2-13 treatment). […]

Substance: Gal2-13FC: galanin 2-13, AEAAAKEAAAKA linker, human IgG1 FC; SEQ ID NO: 7
- Rat GalR2 activity [1]: 6.5 +/− 0.1
- MED, reversal of hyperalgesia induced by CFA [2]: ≤ 1 mg/kg i.p.
- duration of reversal of hyperalgesia induced by CFA [2]: ≥ 72 h
- reversal of Oxaliplatin-induced mechanical hyperalgesia [3]: efficacious

— patent US20260209301A1, “Galanin-2 Receptor Agonists” (LIFEARC, priority 2022, published 2026)
